# Data reported in ChEMBL document CHEMBL5724914, “Linking interpersonal differences in gut microbiota composition and drug biotransformation activity” (2024).
# Assay: The drug is tested on Z-008 corresponding to metagenome with ENA study accession number: PRJEB37062 and ENA sample accession number: ERS12561808 for biotransformation under anaerobic condition. The drug concentrations were measured over 9 timepoints collected between 0 and 24 hours of incubation by liquid-chromatography-coupled mass spectrometry (LC–MS)
# Conditions: 2 µM
# Also: call rule not given here.
row,Bacterial Biotransformation,Structure (SMILES)
1,Compound NOT metabolized,COc1ccc(CCN(C)CCCC(C#N)(c2ccc(OC)c(OC)c2)C(C)C)cc1OC (stereo not given)
2,Compound NOT metabolized,Cc1ccc(S(=O)(=O)NC(=O)NN2CCCCCC2)cc1 [TOLAZAMIDE]

# Assay: (§1) The drug is tested on Z-016 corresponding to mouse gut metagenome with ENA study accession number: PRJEB37062 and ENA sample accession number: ERS12561815 for biotransformation under anaerobic condition. The drug concentrations were measured over 9 timepoints collected between 0 and 24 hours of incubation by liquid-chromatography-coupled mass spectrometry (LC–MS)
# Conditions: 2 µM
row,Bacterial Biotransformation,Structure (SMILES)
1,Compound NOT metabolized,COc1ccc(CCN(C)CCCC(C#N)(c2ccc(OC)c(OC)c2)C(C)C)cc1OC (stereo not given)
2,Compound metabolized,Cc1ccc(S(=O)(=O)NC(=O)NN2CCCCCC2)cc1 [TOLAZAMIDE]

# Assay: as §1, with “WLS-310” for “Z-016”, “human” for “mouse”, “ERS12561785” for “ERS12561815”
# Conditions: 2 µM
row,Bacterial Biotransformation,Structure (SMILES)
1,Compound metabolized,COc1ccc(CCN(C)CCCC(C#N)(c2ccc(OC)c(OC)c2)C(C)C)cc1OC (stereo not given)
2,Compound metabolized,Cc1ccc(S(=O)(=O)NC(=O)NN2CCCCCC2)cc1 [TOLAZAMIDE]

# Assay: as §1, with “WLS-220” for “Z-016”, “human” for “mouse”, “ERS12561769” for “ERS12561815”
# Conditions: 2 µM
row,Bacterial Biotransformation,Structure (SMILES)
1,Compound metabolized,COc1ccc(CCN(C)CCCC(C#N)(c2ccc(OC)c(OC)c2)C(C)C)cc1OC (stereo not given)
2,Compound metabolized,Cc1ccc(S(=O)(=O)NC(=O)NN2CCCCCC2)cc1 [TOLAZAMIDE]

# Assay: as §1, with “Z-019” for “Z-016”, “rat” for “mouse”, “ERS12561818” for “ERS12561815”
# Conditions: 2 µM
row,Bacterial Biotransformation,Structure (SMILES)
1,Compound NOT metabolized,COc1ccc(CCN(C)CCCC(C#N)(c2ccc(OC)c(OC)c2)C(C)C)cc1OC (stereo not given)
2,Compound NOT metabolized,Cc1ccc(S(=O)(=O)NC(=O)NN2CCCCCC2)cc1 [TOLAZAMIDE]

# Conditions: human gut metagenome, 24 h, 2 µM
row,Bacterial Biotransformation,Structure (SMILES)
1,Compound NOT metabolized,COc1ccc(CCN(C)CCCC(C#N)(c2ccc(OC)c(OC)c2)C(C)C)cc1OC (stereo not given)
2,Compound NOT metabolized,Cc1ccc(S(=O)(=O)NC(=O)NN2CCCCCC2)cc1 [TOLAZAMIDE]

# Assay: as §1, with “WLS-038” for “Z-016”, “human” for “mouse”, “ERS12561745” for “ERS12561815”
# Conditions: 2 µM
row,Bacterial Biotransformation,Structure (SMILES)
1,Compound NOT metabolized,COc1ccc(CCN(C)CCCC(C#N)(c2ccc(OC)c(OC)c2)C(C)C)cc1OC (stereo not given)
2,Compound metabolized,Cc1ccc(S(=O)(=O)NC(=O)NN2CCCCCC2)cc1 [TOLAZAMIDE]

# Assay: as §1, with “WLS-073” for “Z-016”, “human” for “mouse”, “ERS12561749” for “ERS12561815”
# Conditions: 2 µM
row,Bacterial Biotransformation,Structure (SMILES)
1,Compound metabolized,COc1ccc(CCN(C)CCCC(C#N)(c2ccc(OC)c(OC)c2)C(C)C)cc1OC (stereo not given)
2,Compound metabolized,Cc1ccc(S(=O)(=O)NC(=O)NN2CCCCCC2)cc1 [TOLAZAMIDE]

# Conditions: human gut metagenome, 24 h, 2 µM
# Remark: another data set of the same source
row,Bacterial Biotransformation,Structure (SMILES)
1,Compound metabolized,COc1ccc(CCN(C)CCCC(C#N)(c2ccc(OC)c(OC)c2)C(C)C)cc1OC (stereo not given)
2,Compound NOT metabolized,Cc1ccc(S(=O)(=O)NC(=O)NN2CCCCCC2)cc1 [TOLAZAMIDE]

# Assay: as §1, with “Z-017” for “Z-016”, “ERS12561816” for “ERS12561815”
# Conditions: 2 µM
row,Bacterial Biotransformation,Structure (SMILES)
1,Compound NOT metabolized,COc1ccc(CCN(C)CCCC(C#N)(c2ccc(OC)c(OC)c2)C(C)C)cc1OC (stereo not given)
2,Compound NOT metabolized,Cc1ccc(S(=O)(=O)NC(=O)NN2CCCCCC2)cc1 [TOLAZAMIDE]

# Assay: as §1, with “Z-013” for “Z-016”, “rabbit” for “mouse”, “ERS12561813” for “ERS12561815”
# Conditions: 2 µM
row,Bacterial Biotransformation,Structure (SMILES)
1,Compound NOT metabolized,COc1ccc(CCN(C)CCCC(C#N)(c2ccc(OC)c(OC)c2)C(C)C)cc1OC (stereo not given)
2,Compound metabolized,Cc1ccc(S(=O)(=O)NC(=O)NN2CCCCCC2)cc1 [TOLAZAMIDE]

# Conditions: human gut metagenome, 24 h, 2 µM
# Remark: another data set of the same source
row,Bacterial Biotransformation,Structure (SMILES)
1,Compound NOT metabolized,COc1ccc(CCN(C)CCCC(C#N)(c2ccc(OC)c(OC)c2)C(C)C)cc1OC (stereo not given)
2,Compound metabolized,Cc1ccc(S(=O)(=O)NC(=O)NN2CCCCCC2)cc1 [TOLAZAMIDE]

# Conditions: human gut metagenome, 24 h, 2 µM
# Remark: another data set of the same source
row,Bacterial Biotransformation,Structure (SMILES)
1,Compound metabolized,COc1ccc(CCN(C)CCCC(C#N)(c2ccc(OC)c(OC)c2)C(C)C)cc1OC (stereo not given)
2,Compound NOT metabolized,Cc1ccc(S(=O)(=O)NC(=O)NN2CCCCCC2)cc1 [TOLAZAMIDE]

# Conditions: human gut metagenome, 24 h, 2 µM
# Remark: another data set of the same source
row,Bacterial Biotransformation,Structure (SMILES)
1,Compound NOT metabolized,COc1ccc(CCN(C)CCCC(C#N)(c2ccc(OC)c(OC)c2)C(C)C)cc1OC (stereo not given)
2,Compound metabolized,Cc1ccc(S(=O)(=O)NC(=O)NN2CCCCCC2)cc1 [TOLAZAMIDE]

# Assay: as §1, with “Z-014” for “Z-016”, “rat” for “mouse”, “ERS12561814” for “ERS12561815”
# Conditions: 2 µM
row,Bacterial Biotransformation,Structure (SMILES)
1,Compound NOT metabolized,COc1ccc(CCN(C)CCCC(C#N)(c2ccc(OC)c(OC)c2)C(C)C)cc1OC (stereo not given)
2,Compound NOT metabolized,Cc1ccc(S(=O)(=O)NC(=O)NN2CCCCCC2)cc1 [TOLAZAMIDE]

# Conditions: human gut metagenome, 24 h, 2 µM
# Remark: another data set of the same source
row,Bacterial Biotransformation,Structure (SMILES)
1,Compound metabolized,COc1ccc(CCN(C)CCCC(C#N)(c2ccc(OC)c(OC)c2)C(C)C)cc1OC (stereo not given)
2,Compound metabolized,Cc1ccc(S(=O)(=O)NC(=O)NN2CCCCCC2)cc1 [TOLAZAMIDE]

# Assay: as §1, with “WLS-007” for “Z-016”, “human” for “mouse”, “ERS12561742” for “ERS12561815”
# Conditions: 2 µM
row,Bacterial Biotransformation,Structure (SMILES)
1,Compound metabolized,COc1ccc(CCN(C)CCCC(C#N)(c2ccc(OC)c(OC)c2)C(C)C)cc1OC (stereo not given)
2,Compound metabolized,Cc1ccc(S(=O)(=O)NC(=O)NN2CCCCCC2)cc1 [TOLAZAMIDE]

# Conditions: human gut metagenome, 24 h, 2 µM
# Remark: another data set of the same source
row,Bacterial Biotransformation,Structure (SMILES)
1,Compound metabolized,COc1ccc(CCN(C)CCCC(C#N)(c2ccc(OC)c(OC)c2)C(C)C)cc1OC (stereo not given)
2,Compound metabolized,Cc1ccc(S(=O)(=O)NC(=O)NN2CCCCCC2)cc1 [TOLAZAMIDE]

# Assay: as §1, with “WLS-086” for “Z-016”, “human” for “mouse”, “ERS12561752” for “ERS12561815”
# Conditions: 2 µM
row,Bacterial Biotransformation,Structure (SMILES)
1,Compound metabolized,COc1ccc(CCN(C)CCCC(C#N)(c2ccc(OC)c(OC)c2)C(C)C)cc1OC (stereo not given)
2,Compound metabolized,Cc1ccc(S(=O)(=O)NC(=O)NN2CCCCCC2)cc1 [TOLAZAMIDE]

# Conditions: human gut metagenome, 24 h, 2 µM
# Remark: another data set of the same source
row,Bacterial Biotransformation,Structure (SMILES)
1,Compound NOT metabolized,COc1ccc(CCN(C)CCCC(C#N)(c2ccc(OC)c(OC)c2)C(C)C)cc1OC (stereo not given)
2,Compound metabolized,Cc1ccc(S(=O)(=O)NC(=O)NN2CCCCCC2)cc1 [TOLAZAMIDE]
